Our source for the log p values is patent US8614217B2 (priority 2008, dated 2013).

This data set in a line: log P(HCOOH) (HPLC/MS). It is filed as physicochemical. The conditions noted are these: HPLC on reversed phase columns, EEC directive 79/831 Annex V.A8.
[1] abbreviates: pH 2.7, 0.1% formic acid in water / acetonitrile gradient.
The mark [2] stands for this setting: pH 2.7 with 0.1% formic acid in water and acetonitrile.

Under setting [1], `C=CCOC(=O)Nc1cccc(CON=C(c2ccccc2)c2nnnn2C)n1` [Example 56] returned a log p of 3.21. Regarding `CC1CCC(C(C)C)C(OCC(=O)Nc2nc(CON=C(c3cccc(F)c3)c3nnnn3C)cs2)C1` (stereo not shown) [Example 172], the log p under setting [1] was 5.47.

With `Cn1nnnc1C(=NOCc1csc(NC(=O)COc2ccccc2-c2ccccc2)n1)c1ccccc1` [Example 289], under setting [2], the log p is recorded as 4.32.

Under setting [1], `Cc1nnnn1C(=NOCc1csc(NC(=O)C2CCOCC2)n1)c1ccccc1` (mixture of isomers) [Example 73] gave a log p of 2.49.

In the case of `C#CCCCC(=O)Nc1cccc(CON=C(c2cccc(F)c2)n2nnnc2C)n1` [Example 35], the log p under setting [1] was determined as 3.15. On the same count and under the same terms, the same measure for `Cn1nnnc1C(=NOCc1csc(NC(=O)OCC(Cl)(Cl)Cl)n1)c1ccccc1` [Example 245]: 3.7. The same measure, in the same setting: in the case of `Cc1nnnn1C(=NOCc1cccc(NC(=O)CC2CC2)n1)c1ccccc1` [Example 124] it was 2.94; in that of `Cc1nnnn1C(=NOCc1csc(NC(=O)CCCC2CCCCC2)n1)c1ccccc1` [Example 229], 4.82.

Turning to `COCCOCC(=O)Nc1nc(CON=C(c2cccc(F)c2)c2nnnn2C)cs1` [Example 183], under setting [1], the log p came to 2.68. Compound `Cn1nnnc1C(=NOCc1csc(NC(=O)CCCOc2ccccc2)n1)c1cccc(F)c1` [Example 196] yielded a log p under setting [1] of 3.7. With `Cn1nnnc1C(=NOCc1cccc(NC(=O)CCOc2ccccc2)n1)c1ccccc1Cl` (mixture of isomers) [Example 373], the log p under setting [2] is recorded as 3.63.

Compound `Cn1nnnc1C(=NOCc1csc(NC(=O)C(F)(F)C(F)(F)C(F)(F)F)n1)c1cccc(F)c1` [Example 192] displayed a log p under setting [1] of 3.75. The same measure, in the same setting: the same measure for `COCCOCCOCC(=O)Nc1nc(CON=C(c2cccc(F)c2)c2nnnn2C)cs1` [Example 186]: 2.66. Compound `COc1ccccc1C(=O)Nc1cccc(CON=C(c2cccc(F)c2)c2nnnn2C)n1` [Example 345] returned a log p under setting [2] of 3.79. Same read-out and setting: in the case of `Cn1nnnc1C(=NOCc1cccc(NC(=O)c2ccccc2Cl)n1)c1cccc(F)c1` [Example 362] it was 3.57. Still for that read-out and setting: the same measure for `CCCCc1ccc(C(=O)Nc2nc(CON=C(c3ccccc3)c3nnnn3C)cs2)cc1` [Example 268]: 4.68. With `Cn1nnnc1C(=NOCc1csc(NC(=O)CSCc2ccccc2)n1)c1cccc(F)c1` [Example 194], the log p under setting [1] stood at 3.68. The compound `CC(Oc1ccc(F)cc1)C(=O)Nc1cccc(CON=C(c2ccccc2)c2nnnn2C)n1` (mixture of isomers) [Example 262] returned a log p under setting [2] of 3.79. `Cn1nnnc1C(=NOCc1csc(NC(=O)Cc2ccsc2)n1)c1cccc(F)c1` [Example 233] displayed a log p under setting [1] of 3.21.
